According to article PMC12133982, “Predominant T-cell epitopes of SARS-CoV-2 restricted by multiple prevalent HLA-B and HLA-C allotypes in Northeast Asia” (Frontiers in Immunology, 2025):
pIC50: −log10 of the molar value. “And” between values parts separate entries of the source, which are not always exact repeats. Equal values may be shown once. Peptide text beside a SMILES is read from it.

Experiments:
HLA-B4601 = HLA-B4601 (Homo sapiens, UniProt P01889, A329T/A93R/C349S/D201E/E100V/E187L/E204Q/E69M/E70A/I90K/K202T/N87E/R155S/R180W/S121R/S35A/S48A/V306I/V36M/Y140S); assay: Competitive peptide binding assay, CIR-B4601; details: for pIC50: HMy2.CIR-B4601 cells, reference Cy5-[…], class from inhibition at 5 and 15 μM, flow cytometry MFI, read-out: Binding affinity with HLA-B4601; for inhibition at 5 µM: read-out: Inhibition % of Cy5-reference peptide binding, CIR-B4601, 5μM peptide; for inhibition at 15 µM: read-out: Inhibition % of Cy5-reference peptide binding, CIR-B4601, 15μM peptide
Procedure: (§1) Then, competitive peptide binding assays were performed.

HLA-B4001 = HLA-B4001 (Homo sapiens, UniProt P01889, A65T/A93T/A95T/D138N/D98Y/E176V/E69K/N87E/Q56L/Q94N/R180L/S121R/S35A/S48T/T167S/V36M/W171L/Y33H/Y91S); assay: Competitive peptide binding assay, CIR-B4001; details: HMy2.CIR-B4001 cells, reference Cy5-[…], class from inhibition at 5 and 15 μM, flow cytometry MFI; read-out: Binding affinity with HLA-B4001
Procedure: as §1

HLA-B1501 = HLA-B1501 (Homo sapiens, UniProt P01889, A329T/A93T/A95T/C349S/D201E/D98Y/E187L/E204Q/E69M/E70A/K202T/N87E/Q94N/R155S/R180W/S121R/S35A/S48A/V306I/V36M/Y140S/Y91S); assay: Competitive peptide binding assay, CIR-B1501; details: HMy2.CIR-B1501 cells, reference Cy5-[…], class from inhibition at 5 and 15 μM, flow cytometry MFI; read-out: Binding affinity with HLA-B1501
Procedure: as §1

HLA-B4403 = HLA-B4403 (Homo sapiens, UniProt P01889, A223V/A65T/A93T/A95T/D201E/D98Y/E176V/E187L/E204Q/E69K/G107R/H137Y/K202T/L105A/L119I/N104T/N87E/Q56L/Q94N/R106L/R155S/R180L/S101N/S121R/S35A/S48T/T118I/V36M/W191S/Y140D/Y91S); assay: Competitive peptide binding assay, CIR-B4403; details: HMy2.CIR-B4403 cells, reference Cy5-CYMEAVAL, class from inhibition at 5 and 15 μM, flow cytometry MFI; read-out: Binding affinity with HLA-B4403
Procedure: as §1

HLA-B5801 = HLA-B5801 (Homo sapiens, UniProt P01889, A329T/C349S/D201E/D98Y/E176V/E187L/E204Q/E69T/G107R/I218V/I90N/K202T/L105A/L119I/N104I/N87E/Q89R/Q94S/R106L/R155S/R180L/R86G/S101N/S121R/S35A/S48A/T118I/V127L/V306I/V36M/Y140S/Y91M); assay: Competitive peptide binding assay, CIR-B5801; details: HMy2.CIR-B5801 cells, reference Cy5-[…], class from inhibition at 5 and 15 μM, flow cytometry MFI; read-out: Binding affinity with HLA-B5801
Procedure: as §1

HLA-B1502 = HLA-B1502 (Homo sapiens, UniProt P01889, A329T/A93T/A95T/C349S/D201E/D98Y/E187L/E204Q/E69M/E70A/H137Y/K202T/L119I/Q94N/R155S/R180L/S121R/S35A/S48A/T118I/V306I/V36M/Y140S/Y91S); assay: Competitive peptide binding assay, CIR-B1502; details: HMy2.CIR-B1502 cells, reference Cy5-[…], class from inhibition at 5 and 15 μM, flow cytometry MFI; read-out: Binding affinity with HLA-B1502
Procedure: as §1

HLA-B5101 = HLA-B5101 (Homo sapiens, UniProt P01889, A329T/A93T/A95T/C349S/D138N/D201E/D98Y/E187L/E204Q/E69T/G107R/I218V/K202T/L105A/L119W/N104I/Q94N/R106L/R155S/R180L/S101N/S121T/S35A/S48A/V306I/V36M/Y195H/Y91F); assay: Competitive peptide binding assay, CIR-B5101; details: HMy2.CIR-B5101 cells, reference Cy5-[…], class from inhibition at 5 and 15 μM, flow cytometry MFI; read-out: Binding affinity with HLA-B5101
Procedure: as §1

HLA-B1301 = HLA-B1301 (Homo sapiens, UniProt P01889, A65T/A93T/A95T/D138N/D201E/D98Y/E176V/E204Q/E69M/E70A/G107R/K202T/L105A/L119I/N104T/N87E/Q94N/R106L/R155S/R169L/R180L/S101N/S121R/S35A/S48T/T118I/V127L/V36M/Y140L/Y91S); assay: Competitive peptide binding assay, CIR-B1301; details: HMy2.CIR-B1301 cells, reference Cy5-[…], class from inhibition at 5 and 15 μM, flow cytometry MFI; read-out: Binding affinity with HLA-B1301
Procedure: as §1

HLA-B3501 = HLA-B3501 (Homo sapiens, UniProt P01889, A329T/A93T/A95T/C349S/D201E/D98Y/E176V/E187L/E204Q/E69T/I218V/K202T/L119I/Q94N/R155S/R180L/S121R/S35A/S48A/T118I/V127L/V306I/V36M/Y140S/Y91F); assay: Competitive peptide binding assay, CIR-B3501; details: HMy2.CIR-B3501 cells, reference Cy5-[…], class from inhibition at 5 and 15 μM, flow cytometry MFI; read-out: Binding affinity with HLA-B3501
Procedure: as §1

HLA-B1302 = HLA-B1302 (Homo sapiens, UniProt P01889, A65T/A93T/A95T/D138N/D201E/D98Y/E176V/E204Q/E69M/E70A/G107R/K202T/L105A/L119W/N104T/N87E/Q94N/R106L/R155S/R169L/R180L/S101N/S121T/S35A/S48T/V127L/V36M/Y140L/Y91S); assay: Competitive peptide binding assay, CIR-B1302; details: HMy2.CIR-B1302 cells, reference Cy5-MMWYWGPSL, class from inhibition at 5 and 15 μM, flow cytometry MFI; read-out: Binding affinity with HLA-B1302
Procedure: as §1

HLA-B0702 = target: T1, HLA-B0702 (Homo sapiens, UniProt P01889); assay: Competitive peptide binding assay, CIR-B0702; details: HMy2.CIR-B0702 cells, reference Cy5-[…], class from inhibition at 5 and 15 μM, flow cytometry MFI
T1 construct: expressed in transfected cells; host or cells: HMy2.CIR
Procedure: as §1

Compound | pIC50 (HLA-B4601) | inhibition at 5 µM (HLA-B4601) | inhibition at 15 µM (HLA-B4601) | pIC50 (HLA-B4001) | pIC50 (HLA-B1501) | pIC50 (HLA-B4403) | pIC50 (HLA-B5801) | pIC50 (HLA-B1502) | pIC50 (HLA-B5101) | pIC50 (HLA-B1301) | pIC50 (HLA-B3501) | pIC50 (HLA-B1302) | pIC50 (HLA-B0702)
CC[C@H](C)[C@H](NC(=O)[C@H](C)NC(=O)[C@H](C)NC(=O)[C@H](CC(N)=O)NC(=O)[C@H](CC(N)=O)NC(=O)[C@H](C)NC(=O)[C@@H]1CCCN1C(=O)[C@@H](N)CC(N)=O)C(=O)N[C@H](C(=O)O)C(C)C [Epitope Y18] (H-NPANNAAIV-OH; N-terminus and C-terminus assumed) | < 4.82 | 12.5% | 42.5% | < 4.82 | 4.82 to 5.30 | < 4.82 | – | – | – | – | – | – | –
CSCC[C@H](NC(=O)[C@H](CCSC)NC(=O)[C@H](CO)NC(=O)[C@H](Cc1ccccc1)NC(=O)[C@H](Cc1c[nH]cn1)NC(=O)[C@H](CCCCN)NC(=O)[C@H](CCCNC(=N)N)NC(=O)[C@H](CC(C)C)NC(=O)[C@@H](N)Cc1ccc(O)cc1)C(=O)O [Epitope Y28] (H-YLRKHFSMM-OH; N-terminus and C-terminus assumed) | > 5.30 | 85.7% | 91.8% | – | > 5.30 | – | < 4.82 | < 4.82 | < 4.82 | < 4.82 | 4.82 to 5.30 | – | –
CC(C)C[C@H](NC(=O)[C@@H](NC(=O)[C@@H](NC(=O)CNC(=O)[C@H](CCC(N)=O)NC(=O)[C@@H]1CCCN1C(=O)[C@H](CC(C)C)NC(=O)[C@H](CCC(N)=O)NC(=O)[C@@H](N)CC(C)C)[C@@H](C)O)[C@@H](C)O)C(=O)O [Epitope Y61] (H-LQLPQGTTL-OH; N-terminus and C-terminus assumed) | < 4.82 | 20% | 33.6% | – | – | – | 4.82 to 5.30 | – | 4.82 to 5.30 | – | > 5.30 | – | –
CC(C)[C@H](NC(=O)[C@H](CC(N)=O)NC(=O)[C@H](Cc1ccc(O)cc1)NC(=O)[C@H](C)NC(=O)[C@@H](N)CCCCN)C(=O)N[C@H](C(=O)N[C@@H](CCC(N)=O)C(=O)N[C@@H](C)C(=O)N[C@@H](Cc1ccccc1)C(=O)O)[C@@H](C)O [Epitope Y62] (H-KAYNVTQAF-OH) | 4.82 to 5.30 | – | – | < 4.82 | 4.82 to 5.30 | 4.82 to 5.30 | 4.82 to 5.30 | – | – | – | > 5.30 | < 4.82 | < 4.82
CC[C@H](C)[C@H](NC(=O)[C@@H]1CCCN1C(=O)[C@@H]1CCCN1C(=O)[C@@H](NC(=O)[C@H](CCCCN)NC(=O)[C@H](Cc1ccc(O)cc1)NC(=O)[C@@H](NC(=O)[C@H](CCC(N)=O)NC(=O)[C@@H](N)CCCCN)[C@@H](C)CC)[C@@H](C)O)C(=O)O [Epitope Y82] (H-KQIYKTPPI-OH; N-terminus and C-terminus assumed) | – | – | – | – | < 4.82 | – | 4.82 to 5.30 | < 4.82 | < 4.82 | – | > 5.30 | – | –
CC(C)C[C@H](NC(=O)[C@H](CCC(N)=O)NC(=O)[C@@H](NC(=O)[C@H](CS)NC(=O)[C@H](Cc1ccccc1)NC(=O)[C@H](CO)NC(=O)CNC(=O)[C@H](Cc1ccc(O)cc1)NC(=O)[C@H](CCC(N)=O)NC(=O)[C@@H](N)CC(C)C)[C@@H](C)O)C(=O)O [Epitope Y88] (H-LQYGSFCTQL-OH; N-terminus and C-terminus assumed) | – | – | – | – | < 4.82 | – | < 4.82 | – | < 4.82 | – | 4.82 to 5.30 | – | –
CC[C@H](C)[C@H](NC(=O)[C@H](CC(C)C)NC(=O)[C@H](CS)NC(=O)CNC(=O)[C@H](C)NC(=O)[C@H](CCCNC(=N)N)NC(=O)[C@@H](NC(=O)[C@H](CCC(N)=O)NC(=O)[C@@H](N)Cc1ccccc1)[C@@H](C)O)C(=O)O [Epitope Y89] (H-FQTRAGCLI-OH; N-terminus and C-terminus assumed) | < 4.82 | – | – | 4.82 to 5.30 | < 4.82 | < 4.82 | < 4.82 | – | – | – | < 4.82 | > 5.30 and < 4.82 | –
CC(C)[C@H](NC(=O)[C@@H](NC(=O)[C@@H](N)Cc1ccccc1)C(C)C)C(=O)N[C@@H](CO)C(=O)N[C@H](C(=O)NCC(=O)N[C@@H](Cc1ccc(O)cc1)C(=O)N[C@@H](Cc1c[nH]cn1)C(=O)N[C@@H](Cc1ccccc1)C(=O)O)[C@@H](C)O [Epitope Y167] (H-FVVSTGYHF-OH; N-terminus and C-terminus assumed) | 4.82 to 5.30 | – | – | – | < 4.82 | < 4.82 | < 4.82 | 4.82 to 5.30 | – | < 4.82 | 4.82 to 5.30 | – | < 4.82
CC[C@H](C)[C@H](NC(=O)[C@H](Cc1ccc(O)cc1)NC(=O)[C@H](CCC(N)=O)NC(=O)[C@H](CCC(=O)O)NC(=O)[C@@H](N)Cc1ccc(O)cc1)C(=O)N[C@@H](CCCCN)C(=O)N[C@@H](Cc1c[nH]c2ccccc12)C(=O)N1CCC[C@H]1C(=O)N[C@@H](Cc1c[nH]c2ccccc12)C(=O)O [Epitope Y230] (H-YEQYIKWPW-OH; N-terminus and C-terminus assumed) | < 4.82 | – | – | < 4.82 | < 4.82 | > 5.30 | 4.82 to 5.30 | < 4.82 | – | – | < 4.82 | – | –
CC[C@H](C)[C@H](NC(=O)[C@@H](NC(=O)[C@H](CC(N)=O)NC(=O)[C@H](CCCNC(=N)N)NC(=O)[C@H](CCCCN)NC(=O)[C@@H](NC(=O)[C@H](Cc1ccc(O)cc1)NC(=O)[C@H](C)NC(=O)[C@@H](N)Cc1ccccc1)[C@@H](C)O)C(C)C)C(=O)O [Epitope Y276] (H-FAYTKRNVI-OH; N-terminus and C-terminus assumed) | – | – | – | – | < 4.82 | – | – | < 4.82 | 4.82 to 5.30 | > 5.30 | < 4.82 | – | –
